Results published in patent publication US10493398B2, “Cyclic amine for selectively removing hydrogen sulphide” (BASF SE, priority 2015, dated 2019).
Like-named read-outs stand apart in the source and are kept apart here.

Assay: pKA values by half-equivalence method
Assay type: physicochemical
Details: for pKa: amine in water, half neutralized with hydrochloric acid; for pKa decrease from 20 °C to 120 °C (pKa at 20 °C − pKa at 120 °C): difference between 20° C. and 120° C.
Experimental: The pKA values are suitably measured in aqueous solution with an amine concentration of 0.01 to 0.05 mol/kg at the specified temperature by determining the pH at the half-equivalence point, as shown, for example, by the working examples.
The pKA values of various amines were determined by means of the half-equivalence method. For this purpose, the amines were dissolved in water with a concentration of […] and partly neutralized with half the molar amount of hydrochloric acid (0.005 to 0.025 mol/L). The mass of the amine solutions was 250 g. […] The measurements were conducted at 20 and 120° C. The pH electrode used was the “Hamilton Polylite Plus 120” model, which is calibrated with pH 7 and pH 12 buffer solutions. The measurement was effected in a thermostated closed jacketed vessel with nitrogen blanketing.

[1] = 20° C., read-out: pKA at 20° C.
[2] = 120° C., read-out: pKA at 120° C.

| SMILES | pKa [1] | pKa [2] | pKa decrease from 20 °C to 120 °C (pKa at 20 °C − pKa at 120 °C) |
| --- | --- | --- | --- |
| CN(C)C1CC(C)(C)NC(C)(C)C1 [DATP, 4-dimethylamino-2,2,6,6-tetramethylpiperidine] | 10.7 | 8.1 | 2.6 |
| CC1(C)CC(O)CC(C)(C)N1 [TAAol, 4-hydroxy-2,2,6,6-tetramethylpiperidine] | 10.2 | 7.6 | 2.6 |
